This is an account of results in patent publication US9751881B2, “Inhibitors of the renal outer medullary potassium channel” (Merck Sharp & Dohme Corp., priority 2013, dated 2017).

The assay concerns the target hROMK (hKir1.1) (Homo sapiens (Human), UniProt P48048). In words: Thallium Flux Assay (ROMK channel functional thallium flux, FLIPR-Tetra). The format is cell-based. The settings on record: HEK293 cells stably expressing hROMK (hKir1.1); unit not given in Table 4 (IC50 potencies less than 1 μM); read-out: ROMK TI IC50. The essentials:
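HEK293 cells stably expressing hROMK, FluxOR dye-loaded 90 min, then compound 30 min at room temperature. Normalised to 3 μM reference ROMK inhibitor as % fluorescence change.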

Molecules are shown by their SMILES. Counter-ions that a name gives are not always drawn.

Chain of hROMK (hKir1.1) (P48048 whole entry): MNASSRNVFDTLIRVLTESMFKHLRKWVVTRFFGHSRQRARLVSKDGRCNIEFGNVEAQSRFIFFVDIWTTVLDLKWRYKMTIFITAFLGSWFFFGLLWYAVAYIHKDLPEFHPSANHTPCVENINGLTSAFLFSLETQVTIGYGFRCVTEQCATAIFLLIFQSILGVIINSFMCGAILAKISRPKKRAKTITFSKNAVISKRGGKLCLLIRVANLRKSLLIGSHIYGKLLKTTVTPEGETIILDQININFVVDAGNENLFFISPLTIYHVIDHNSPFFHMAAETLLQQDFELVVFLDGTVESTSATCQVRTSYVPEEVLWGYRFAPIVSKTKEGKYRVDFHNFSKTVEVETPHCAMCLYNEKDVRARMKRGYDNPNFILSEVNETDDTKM

Turning to `Cc1c([C@@H](O)CN2CCC3(CC2)CC(=O)N(c2ccc(S(C)(=O)=O)c(F)c2)C3)ccc2c1COC2=O` [Example 67, 2-[3-Fluoro-4-(methylsulfonyl)phenyl]-8-[(2R)-2-hydroxy-2-(4-methyl-1-oxo-1,3-dihydro-2-benzofuran-5-yl)ethyl]-2,8-diazaspiro[4.5]decan-3-one hydrochloride], the IC50 was found to be 0.068 µM.
Take `CCS(=O)(=O)c1cnc(N2CC3(CCN(C[C@H](O)c4ccc5c(c4C)COC5=O)CC3)CC2=O)cn1` [Example 68, 2-[5-(Ethylsulfonyl)pyrazin-2-yl]-8-[(2R)-2-hydroxy-2-(4-methyl-1-oxo-1,3-dihydro-2-benzofuran-5-yl)ethyl]-2,8-diazaspiro[4.5]decan-3-one hydrochloride]: the IC50 came out at 0.127 µM.
To `Cc1c([C@@H](O)CN2CCC3(CC2)CC(=O)N(c2ccc(-n4cnnn4)c(F)c2)C3)ccc2c1COC2=O` [Example 69, 2-[3-Fluoro-4-(1H-tetrazol-1-yl)phenyl]-8-[(2R)-2-hydroxy-2-(4-methyl-1-oxo-1,3-dihydro-2-benzofuran-5-yl)ethyl]-2,8-diazaspiro[4.5]decan-3-one hydrochloride] belongs 0.173 µM; to `Cc1c([C@@H](O)CN2CCC3(CC2)CC(=O)N(c2ccc(S(=O)(=O)C4CC4)cc2)C3)ccc2c1COC2=O` [Example 70, 2-[4-(Cyclopropylsulfonyl)phenyl]-8-[(2R)-2-hydroxy-2-(4-methyl-1-oxo-1,3-dihydro-2-benzofuran-5-yl)ethyl]-2,8-diazaspiro[4.5]decan-3-one hydrochloride], 0.248 µM; to `Cc1c([C@@H](O)CN2CCC3(CC2)CC(=O)N(c2nnc(S(C)(=O)=O)s2)C3)ccc2c1COC2=O` [Example 71, 8-[(2R)-2-Hydroxy-2-(4-methyl-1-oxo-1,3-dihydro-2-benzofuran-5-yl)ethyl]-2-[5-(methylsulfonyl)-1,3,4-thiadiazol-2-yl]-2,8-diazaspiro[4.5]decan-3-one hydrochloride], 0.142 µM.
To `Cc1c([C@@H](O)CN2CCC3(CC2)CC(=O)N(c2ccc(-n4cnnn4)nc2)C3)ccc2c1COC2=O` [Example 72, 8-[(2R)-2-Hydroxy-2-(4-methyl-1-oxo-1,3-dihydro-2-benzofuran-5-yl)ethyl]-2-[6-(1H-tetrazol-1-yl)pyridin-3-yl]-2,8-diazaspiro[4.5]decan-3-one hydrochloride] belongs 0.1 µM; to `Cc1nc(N2CC3(CCN(C[C@H](O)c4ccc5c(c4C)COC5=O)CC3)CC2=O)ccc1-n1cnnn1` [Example 73, 8-[(2R)-2-Hydroxy-2-(4-methyl-1-oxo-1,3-dihydro-2-benzofuran-5-yl)ethyl]-2-[6-methyl-5-(1H-tetrazol-1-yl)pyridin-2-yl]-2,8-diazaspiro[4.5]decan-3-one hydrochloride], 0.359 µM; to `Cc1c([C@@H](O)CN2CCC3(CC2)CC(=O)N(c2ccc(S(C)(=O)=O)cc2)C3)ccc2c1COC2=O` [Example 74, 8-[(2R)-2-Hydroxy-2-(4-methyl-1-oxo-1,3-dihydro-2-benzofuran-5-yl)ethyl]-2-[4-(methylsulfonyl)phenyl]-2,8-diazaspiro[4.5]decan-3-one hydrochloride], 0.0822 µM.
For `Cc1c([C@@H](O)CN2CCC3(CC2)CCN(c2ccc(S(C)(=O)=O)cc2)C3=O)ccc2c1COC2=O` [Example 75, 8-[(2R)-2Hydroxy-2-(4-methyl-1-oxo-1,3-dihydro-2-benzofuran-5-yl)ethyl]-2-[4-(methylsulfonyl)phenyl]-2,8-diazaspiro[4.5]decan-1-one hydrochloride], the IC50 stood at 0.0852 µM.
Next, `Cc1c([C@@H](O)CN2CCC3(CC2)CCN(c2nnc(S(C)(=O)=O)s2)C3=O)ccc2c1COC2=O` [Example 76, 8-[(2R)-2-Hydroxy-2-(4-methyl-1-oxo-1,3-dihydro-2-benzofuran-5-yl)ethyl]-2-[5-(methylsulfonyl)-1,3,4-thiadiazol-2-yl]-2,8-diazaspiro[4.5]decan-1-one hydrochloride]: 0.1 µM.
In the case of `CN[C@@H](CN1CCC2(CC1)CCN(c1ccc(C#N)cn1)C2)c1ccc2c(c1C)COC2=O` [Example 77, (R)-6-(8-(2-(4-methyl-1-oxo-1,3-dihydroisobenzofuran-5-yl)-2-(methylamino)ethyl)-2,8-diazaspiro[4.5]decan-2-yl)nicotinonitrile], the IC50 was found to be 0.0613 µM.
Next, `C=CCN[C@@H](CN1CCC2(CC1)CCN(c1ccc(C#N)cn1)C2)c1ccc2c(c1C)COC2=O` [Example 78, (R)-6-(8-(2-(allylamino)-2-(4-methyl-1-oxo-1,3-dihydroisobenzofuran-5-yl)ethyl)-2,8-diazaspiro[4.5]decan-2-yl)nicotinonitrile]: 0.0706 µM.
In the case of `Cc1c([C@@H](N)CN2CCC3(CC2)CCN(c2ccc(C#N)cn2)C3)ccc2c1COC2=O` [Example 79, (R)-6-(8-(2-amino-2-(4-methyl-1-oxo-1,3-dihydroisobenzofuran-5-yl)ethyl)-2,8-diazaspiro[4.5]decan-2-yl)nicotinonitrile], the IC50 was determined as 0.0141 µM.
Next, `Cc1c([C@@H](O)CN2CCC3(CC2)CCN(c2ccc(-n4ccnn4)cc2)C3)ccc2c1COC2=O` [Example 80]: 0.0635 µM; `Cc1cc(N2CCC3(CCN(C[C@H](O)c4ccc5c(c4C)COC5=O)CC3)C2)cnc1C#N` [Example 81]: 0.0101 µM; `COc1cc(N2CCC3(CCN(C[C@H](O)c4ccc5c(c4C)COC5=O)CC3)C2)ncc1C#N` [Example 82]: 0.0328 µM.
Next, `Cc1c([C@@H](O)CN2CCC3(CC2)CCN(c2cnc(C#N)cn2)C3)ccc2c1COC2=O` [Example 83]: 0.0047 µM; `Cc1c([C@@H](O)CN2CCC3(CC2)CCN(c2cc(C#N)ccc2F)C3)ccc2c1COC2=O` [Example 84]: 0.255 µM.
Next, `COc1ccc(C#N)cc1N1CCC2(CCN(C[C@H](O)c3ccc4c(c3C)COC4=O)CC2)C1` [Example 85]: 0.234 µM; `COc1cc(C#N)ccc1N1CCC2(CCN(C[C@H](O)c3ccc4c(c3C)COC4=O)CC2)C1` [Example 86]: 0.0504 µM; `Cc1c([C@@H](O)CN2CCC3(CC2)CCN(c2ccc(C#N)nc2)C3)ccc2c1COC2=O` [Example 87]: 0.0887 µM.
With `CC1=CS(=O)(=O)c2ccc(N3CCC4(CCN(C[C@H](O)c5ccc6c(c5C)COC6=O)CC4)C3)cc21` [Example 88], the IC50 came out at 0.353 µM.
Regarding `Cc1c([C@@H](O)CN2CCC3(CC2)CCN(c2cccc(C#N)c2)C3)ccc2c1COC2=O` [Example 89], the IC50 was determined as 0.118 µM.
For the molecule `Cc1c([C@@H](O)CN2CCC3(CC2)CCN(c2ncc(C#N)s2)C3)ccc2c1COC2=O` [Example 90], the IC50 was 0.0067 µM.
To `Cc1c([C@@H](O)CN2CCC3(CC2)CN(c2ccc(S(C)(=O)=O)cn2)C(=O)O3)ccc2c1COC2=O` [Example 91, (R)-8-(2-hydroxy-2-(4-methyl-1-oxo-1,3-dihydroisobenzofuran-5-yl)ethyl)-3-(5-(methylsulfonyl)pyridin-2-yl)-1-oxa-3,8-diazaspiro[4.5]decan-2-one] belongs 0.208 µM.
Next, `Cc1c([C@@H](O)CN2CCC3(CC2)CN(c2cnc(S(C)(=O)=O)cn2)C(=O)O3)ccc2c1COC2=O` [Example 92, (R)-8-(2-Hydroxy-2-(4-methyl-1-oxo-1,3-dihydroisobenzofuran-5-yl)ethyl)-3-(5-(methylsulfonyl)pyrazin-2-yl)-1-oxa-3,8-diazaspiro[4.5]decan-2-one]: 0.125 µM; `CCS(=O)(=O)c1cnc(N2CC3(CCN(C[C@H](O)c4ccc5c(c4C)COC5=O)CC3)OC2=O)cn1` [Example 93, (R)-3-(5-(Ethylsulfonyl)pyrazin-2-yl)-8-(2-hydroxy-2-(4-methyl-1-oxo-1,3-dihydroisobenzofuran-5-yl)ethyl)-1-oxa-3,8-diazaspiro[4.5]decan-2-one]: 0.148 µM.
Next, `Cc1c([C@@H](O)CN2CCC3(CC2)CN(c2ccc(S(C)(=O)=O)cc2)C(=O)O3)ccc2c1COC2=O` [Example 94, (R)-8-(2-Hydroxy-2-(4-methyl-1-oxo-1,3-dihydroisobenzofuran-5-yl)ethyl)-3-(4-(methylsulfonyl)phenyl)-1-oxa-3,8-diazaspiro[4.5]decan-2-one]: 0.159 µM; `COc1cc(N2CC3(CCN(C[C@H](O)c4ccc5c(c4C)COC5=O)CC3)OC2=O)ncc1C#N` [Example 95, (R)-6-(8-(2-Hydroxy-2-(4-methyl-1-oxo-1,3-dihydroisobenzofuran-5-yl)ethyl)-2-oxo-1-oxa-3,8-diazaspiro[4.5]decan-3-yl)-4-methoxynicotinonitrile]: 0.084 µM; `Cc1c([C@@H](O)CN2CCC3(CC2)CCN(c2ccc(S(C)(=O)=O)cn2)C3=O)ccc2c1COC2=O` [Example 96, (R)-8-(2-Hydroxy-2-(4-methyl-1-oxo-1,3-dihydroisobenzofuran-5-yl)ethyl)-2-(5-(methylsulfonyl)pyridin-2-yl)-2,8-diazaspiro[4.5]decan-1-one]: 0.0859 µM.
In the case of `Cc1c([C@@H](O)CN2CCC3(CC2)OCCN(c2ccc(S(C)(=O)=O)cn2)C3=O)ccc2c1COC2=O` [Example 97, (R)-9-(2-Hydroxy-2-(4-methyl-1-oxo-1,3-dihydroisobenzofuran-5-yl)ethyl)-4-(5-(methylsulfonyl)pyridin-2-yl)-1-oxa-4,9-diazaspiro[5.5]undecan-5-one], the IC50 is 0.187 µM.
Next, `Cc1c([C@@H](O)CN2CCC3(CC2)CN(c2ccc(S(C)(=O)=O)cn2)CCO3)ccc2c1COC2=O` [Example 98, (R)-5-(1-Hydroxy-2-(4-(5-(methylsulfonyl)pyridin-2-yl)-1-oxa-4,9-diazaspiro[5.5]undecan-9-yl)ethyl)-4-methylisobenzofuran-1(3H)-one]: 0.376 µM; `Cc1c([C@@H](O)CN2CCC3(CC2)CN(c2ccc(S(C)(=O)=O)nc2)CCO3)ccc2c1COC2=O` [Example 99, (R)-5-(1-Hydroxy-2-(4-(6-(methylsulfonyl)pyridin-3-yl)-1-oxa-4,9-diazaspiro[5.5]undecan-9-yl)ethyl)-4-methylisobenzofuran-1(3H)-one]: 0.168 µM.
